Laboratory results from publication PMC9501633, “Synthesis, Characterisation and Mechanism of Action of Anticancer 3-Fluoroazetidin-2-ones” (Pharmaceuticals, 2022).

Key:
Experiment in all cases: AlamarBlue cell viability assay
Format in all cases: cell-based
[1] = system: MCF-7 human breast cancer cells; details: Homo sapiens, MCF7, 72 h
Method: The antiproliferative potential of the synthesised 3-fluoro β-lactams 26–35 and 3,3-difluoro β-lactams 36–45 was evaluated in MCF-7 human breast cancer cells using the AlamarBlue assay, with CA-4 as reference compound (Figure 3). […] The results for the preliminary in vitro antiproliferative screen for 3-fluoro β-lactam compounds (26–29), which contain different substituents at the para position in the B ring, are presented in Figure 3A.
Cells were seeded at a density of 5 × 10^3 cells/well (MCF-7 and MDA-MB-231) and 1 × 10^4 cells/well (HEK-293T) in 96-well plates (200 μL per well). After 24 h, cells were then treated with medium alone, with vehicle (1% ethanol (v/v)) or with CA-4 or β-lactam compounds at 1 μM and 10 μM concentrations. […] Cell proliferation for MCF-7 cells was analysed with the AlamarBlue assay (Invitrogen Corp.) as previously described by us. After 72 h, AlamarBlue (10% (v/v)) was added to each well, and plates were incubated for 3–5 h at 37 °C in the dark. Fluorescence results were obtained with a 96-well fluorimeter with excitation at 530 nm and emission at 590 nm with results recorded as percentage viability relative to vehicle control (100%). Dose–response curves were obtained and IC50 values (concentration of drug resulting in 50% reduction in cell survival) were calculated using Prism (GraphPad Software, Inc., La Jolla, CA, USA).
Figure 3 Preliminary cell viability data for 3-fluoro and 3,3-difluoro β-lactam compounds. (A) 3-Fluoro β-lactam compounds containing different para-substituent ring B 26–29; 3-fluoro β-lactam compounds containing different meta-substituent ring B 30, 32–35; (B) 3-difluoro β-lactam compounds containing different para-substituent ring B 36–39; 3-difluoro β-lactam compounds containing different meta-substituent ring B 40, 42–45 in MCF-7 breast cancer cells. Cell proliferation of MCF-7 cells was determined with an AlamarBlue assay (seeding density […] for 96-well plates). Compound concentrations of either 10 μM or 1 μM for 72 h were used to treat the cells with control wells containing vehicle ethanol (1% v/v) and CA-4 (10 μM and 1 μM). The mean value for three experiments is shown with the ± S.E.M. for three independent experiments.

Hs578T cells = details: Homo sapiens, Hs-578T
Method: (§1) The potent 3-fluoro-β-lactam compound 33 synthesised was also evaluated in the triple-negative MDA-MB-231 cell line which lacks expression of the estrogen and progesterone receptors (ER/PR) and the HER2 receptor. […]. Compound 32 was also evaluated in the triple-negative breast cancer cell line Hs578T and its isogenic subclone Hs578T(i)8 (Figure 4C). Hs578Ts(i)8 cells have 2.5-fold more migratory capacity and 3-fold more invasive capacity through the extracellular matrix than the parental cell line (Hs578T) and have 30% more CD44+/CD24-/low cells and in vivo proliferation. […]. The human breast carcinoma cell lines MCF-7 and MDA-MB-231 were purchased from the European Collection of Animal Cell Cultures (ECACC, Salisbury, UK). The SW-480 cells were a kind gift from Dr. Brian Flood, School of Biochemistry and Immunology, Trinity College Dublin. The human breast tumour cell line MCF-7 was cultured in Eagles minimum essential medium with 10% foetal bovine serum, 2 mM L-glutamine and 100 μg/mL penicillin/streptomycin. The medium was supplemented with 1% non-essential amino acids. The human breast tumour cell line MDA-MB-231 cells were maintained in Dulbecco’s modified Eagle’s medium (DMEM) with the addition of penicillin/streptomycin (100 µg/mL), 10% (v/v) foetal bovine serum and 2 mM L-glutamine (complete medium). Breast cancer cell line Hs578T and its isogenic subclone Hs578T(i)8 were a kind gift from Dr. Susan McDonnell, School of Chemical and Bioprocess Engineering, University College Dublin. SW-480 cells, triple-negative breast cancer Hs578T cells and invasive variant Hs578T8i cells were cultured in DMEM with GlutaMAX-I, with the same supplement in the absence of non-essential amino acids. HEK-293T cells (normal epithelial embryonic kidney cells) were cultured in DMEM with GlutaMAX-I in the absence of non-essential amino acids. The SW-480 cells were cultured in DMEM with GlutaMAX-I, with the same supplement in the absence of non-essential amino acids. All media contained 100 U/mL penicillin and 100 μg/mL streptomycin. The cells were seeded into pre-warmed complete medium (10 × 10^4 cells/mL) and maintained at a cell density of 2–19 × 10^5 cells /mL by the addition of fresh media. The cell number was monitored using a haemocytometer. Cells were maintained at 37 °C in 5% CO2 in a humidified incubator. […]
(§2) Figure 4 Antiproliferative activity of 3-fluoro β-lactams on MCF-7, MDA-MB-231, Hs578T and Hs578T isogenic subclone Hs578T(i)8 breast cancer cells and non-tumourigenic HEK-293T cells. […] Cell viability was expressed as a percentage of vehicle control (ethanol 1% (v/v))-treated cells. […] Cell viability was expressed as a percentage of vehicle control (ethanol 1% (v/v))-treated cells and was measured by AlamarBlue assay (average of three independent experiments). […]

Hs578Ts(i)8 cells = system: Hs578Ts(i)8 cells
Method: as §1, §2

IC50 ([1]; MCF-7, 72 h): 75 nM
SMILES: COc1ccc(C2C(F)C(=O)N2c2cc(OC)c(OC)c(OC)c2)cc1O (stereo not shown) [Compound 32, 3-Fluoro-4-(3-hydroxy-4-methoxyphenyl)-1-(3,4,5-trimethoxyphenyl)azetidin-2-one]
viability at 1 µM ([1]; MCF-7, 1 μM, 72 h, read-out: viable cells remaining): 30% | IC50 (Hs578T cells): 33 nM | IC50 (Hs578Ts(i)8 cells): 65 nM
